From US9044526B2, “Medical product containing active component of propolis or grapefruit seed extract and manufacturing method thereof” (Korea Institute of Ceramic Engineering and Technology, priority 2011, dated 2015)

Assays:
[1] = Drug release of impregnated multifilament in 0.01M PBS; format: physicochemical; conditions: release from multifilament impregnated with 1000 ppm solution; 0.01M PBS pH 7.4, 37, examined 0-100 hours
Method: In order to examine the […] drug release of each of the multifilament samples impregnated with CAPE and GSE for 440 min and pinocembrin for 720 min in Example 3, the following test was performed. As a solvent for use in this release test, 0.01M PBS (by phosphate buffer calculator, monobasic monohydrate: 1.1832 g, and dibasic ACS reagent: 8.1572 g) was prepared and adjusted to a pH of 7.4. After standard curves of FIGS. 5A, 5B and 5C for the grapefruit seed extracts and CAPE and pinocembrin (the active components of propolis) were plotted, and then tests for the materials were performed at the respective concentrations. The standard curves for the functional materials were obtained by measuring the absorbance using JASCO V-550 UV-Vis Spectrometer (Wavelength Range: 200-900 nm; Bandwidth Selectable: 0.5 nm; Scanning Speed: 400 nm/min; Data Pitch: 1 nm). The standard curve equations shown in FIGS. 5A (CAPE), 5B (Pinocembrin) and 5C (grapefruit seed extract) are as follows: y=0.126x+0.022 CAPE (1) y=0.051x+0.021 Pinocembrin (2) y=0.002x−0.035 Grapefruit seed extract (3) wherein x is the concentration of each functional material, and y is the absorbance of each functional material. […]

[2] = tested on: Escherichia coli DH 5α (ATCC 25922); test: Antibacterial activity of impregnated multifilament, agar diffusion; format: cell-based; conditions: contained in multifilament, treatment concentration 1000 ppm, 37.1° C., 24 hours, FIG. 8
Method: (§1) The antibacterial activity of the multifilament of Example containing the grapefruit seed extract and the active components (CAPE and pinocembrin) of propolis was tested. In the test, the cells of bacterial strains were grown in LB medium (peptone 10 g) by agar diffusion, and the growth of the bacterial strains was examined by UV-Vis spectroscopy. As the test strains, Staphylococcus aureus (ATCC 6538) and Escherichia coli DH 5α (ATCC 25922) were used. The bacterial cells were cultured at 37.1° C. for 24 hours, and then changes in the bacterial strains were measured. FIG. 8 is a set of photographs showing a comparison of antibacterial activity between a multifilament containing the grapefruit seed extract and a multifilament containing the active component (CAPE) of propolis. […] In FIG. 8, 1: a control group, 2 to 6: samples impregnated with a solution of CAPE and the grapefruit seed extract; a: a sample treated with Staphylococcus aureus; b: a sample treated with Escherichia coli DH 5α. In the photograph of FIG. 8, the treatment concentration is 1000 ppm. […] Although a lower concentration of the antibacterial material is contained in the multifilament, it is considered that the test should be carried out at 1000 ppm, because the concentration of the antibacterial material in the multifilament will be excessively low when the test is carried out at a lower concentration. […]

[3] = tested on: Staphylococcus aureus (ATCC 6538); test: as above; format: cell-based; conditions: contained in multifilament, treatment concentration 1000 ppm, 37.1° C., 24 hours, FIG. 8
Method: as §1

[4] = Degradation behavior of PGLA multifilament in PBS solution; format: physicochemical
From the text: FIG. 9 is a photograph showing the results of observing the degradation behavior of 0.1 g of the PGLA multifilament in PBS solution (pH7.4; similar to the human body) for 0 day, 10 days and 2 months. […] Also, it can be seen that the grapefruit seed extract and CAPE or pinocembrin which is the active component of propolis have no effect on the degradation of the multifilament.

O=C(/C=C/c1ccc(O)c(O)c1)OCCc1ccccc1 [CAPE, caffeic acid phenethyl ester]
time at which drug release behavior was completed [1]: ≤ 64 h
antibacterial activity [2]: showed antibacterial activity
antibacterial activity [3]: showed antibacterial activity
effect on the degradation of the multifilament ([4]; pH 7.4): no effect

O=C1CC(c2ccccc2)Oc2cc(O)cc(O)c21 (stereo not shown) [pinocembrin]
time at which drug release behavior was completed [1]: ≤ 60 h
effect on the degradation of the multifilament ([4]; PBS solution pH7.4, 0 day, 10 days and 2 months, FIG. 9): no effect

poly(glycolide-co-L-lactide) [PGLA multifilament]
degradation of the multifilament ([4]; pH 7.4): significantly rapid
